Experimental data as given in ChEMBL document CHEMBL4665749, “Usnic Acid Conjugates with Monoterpenoids as Potent Tyrosyl-DNA Phosphodiesterase 1 Inhibitors” (J Nat Prod, 2020).

Experiments:
[1] = biological target: Tyrosyl-DNA phosphodiesterase 1 (Homo sapiens, UniProt Q9NUW8); experiment: Inhibition of recombinant TDP1 (unknown origin) expressed in Escherichia coli using 5'-FAM/3'-BHQ1 tagged oligonucleotide as substrate by fluorescence assay
HeLa [2] = experiment: Potency index, ratio of CC50 of topotecan to CC50 of compound for human HeLa cells assessed as reduction in cell viability after 3 days in presence of topotecan by fluorometric assay; assay type: functional
HeLa [3] = experiment: Cytotoxicity against human HeLa cells assessed as reduction in cell viability after 3 days by fluorometric assay; assay type: functional; settings: 72 h
HeLa [4] = experiment: Cytotoxicity against human HeLa cells assessed as reduction in cell viability after 3 days in presence of topotecan by fluorometric assay; assay type: functional; settings: 72 h

Chain of Tyrosyl-DNA phosphodiesterase 1 (Q9NUW8 whole entry): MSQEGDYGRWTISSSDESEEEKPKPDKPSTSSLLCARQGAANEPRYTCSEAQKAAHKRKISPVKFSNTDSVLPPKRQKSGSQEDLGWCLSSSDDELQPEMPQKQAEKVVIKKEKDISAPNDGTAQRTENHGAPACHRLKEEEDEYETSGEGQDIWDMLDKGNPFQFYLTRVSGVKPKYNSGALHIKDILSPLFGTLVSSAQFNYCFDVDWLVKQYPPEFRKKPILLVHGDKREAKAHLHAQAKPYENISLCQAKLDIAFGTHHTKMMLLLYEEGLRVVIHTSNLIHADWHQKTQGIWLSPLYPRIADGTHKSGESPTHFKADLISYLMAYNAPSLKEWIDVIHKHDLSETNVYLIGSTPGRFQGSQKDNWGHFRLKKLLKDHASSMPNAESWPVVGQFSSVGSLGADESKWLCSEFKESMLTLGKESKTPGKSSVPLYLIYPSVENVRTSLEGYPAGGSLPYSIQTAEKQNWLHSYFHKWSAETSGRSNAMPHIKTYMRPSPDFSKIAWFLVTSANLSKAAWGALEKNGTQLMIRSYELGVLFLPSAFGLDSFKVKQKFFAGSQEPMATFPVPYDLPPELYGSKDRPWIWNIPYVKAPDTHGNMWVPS

IC50 [1] [nM] | SMILES | Ratio (HeLa [2]) | CC50 (HeLa [3]) [µM] | CC50 (HeLa [4]) [nM]
46 | CC(=O)C1=C(O)C=C2Oc3c(-c4csc(NN=C5C=C(C)[C@H]6C[C@@H]5C6(C)C)n4)c(O)c(C)c(O)c3[C@@]2(C)C1=O (mixture of isomers) | 1.3 | 20 | 3500
88 | CCCCCCCC=NNc1nc(-c2c(O)c(C)c(O)c3c2OC2=CC(O)=C(C(C)=O)C(=O)[C@@]23C)cs1 | – | 20 | –
16.4 | CC(=O)C1=C(O)C=C2Oc3c(-c4csc(NN=CCC(C)CCC=C(C)C)n4)c(O)c(C)c(O)c3[C@@]2(C)C1=O (stereo not given in full) | 7.1 | 20 | 630
45 | CC(=O)C1=C(O)C=C2Oc3c(-c4csc(N/N=C\C5=C[C@@H]6C[C@H](C5)C6(C)C)n4)c(O)c(C)c(O)c3[C@@]2(C)C1=O | 1.7 | > 100 | 2700

More lines, now with the values behind:

SMILES | IC50 [1] [nM] | Ratio (HeLa [2]) | CC50 (HeLa [3]) [µM] | CC50 (HeLa [4]) [nM]
CC(=O)C1=C(O)C=C2Oc3c(-c4csc(NN=CCC(C)CCCC(C)(C)O)n4)c(O)c(C)c(O)c3[C@@]2(C)C1=O (stereo not given in full) | 139 | – | 20 | –
CC(=O)C1=C(O)C=C2Oc3c(-c4csc(N/N=C5/C[C@H]6CC[C@]5(C)C6(C)C)n4)c(O)c(C)c(O)c3[C@@]2(C)C1=O | 31 | 1.7 | 20 | 2700
C=C(C)[C@H]1CC=C(/C=N\Nc2nc(-c3c(O)c(C)c(O)c4c3OC3=CC(O)=C(C(C)=O)C(=O)[C@@]34C)cs2)CC1 | 27 | 3.8 | 20 | 1200
CC[C@@]1(O)C(=O)OCc2c1cc1n(c2=O)Cc2cc3c(CN(C)C)c(O)ccc3nc2-1 [TOPOTECAN] | – | – | 4.5 | –
